In PubChem BioAssay AID2060500 (Molecular Pharmacology Branch, DTP, NCI, 2025):

Tested on: 596521-263-R-J1-PDC complex spheroids, viability % of control
Test: Anticancer human tumor 596521-263-R-J1-PDC patient-derived soft tissue sarcoma cell line growth inhibition [GQUAD]
Settings: for IC50: curve of first compound; for viability, T/C: stronger effect = lower value
Summary of the method: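 Multi-cell-type spheroids of tumor cells with HUVEC and mesenchymal stem cells, treated with drug combinations. Concentrations descend in half-log steps from near clinical Cmax, or from 10 microM where Cmax is unknown; viability read-out.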

[1] = second compound 0.0316 µM, first compound 0.0316 µM
[2] = second compound 0.0316 µM, first compound 0.1 µM
[3] = second compound 0.0316 µM, first compound 0.316 µM
[4] = second compound 0.0316 µM, first compound 1 µM
[5] = second compound 0.0316 µM, first compound 3.16 µM
[6] = second compound 0.0316 µM, first compound 10 µM
[7] = second compound 0.1 µM, first compound 0.0316 µM
[8] = second compound 0.1 µM, first compound 0.1 µM
[9] = second compound 0.1 µM, first compound 0.316 µM
[10] = second compound 0.1 µM, first compound 1 µM
[11] = second compound 0.1 µM, first compound 3.16 µM
[12] = second compound 0.1 µM, first compound 10 µM
[13] = second compound 0.316 µM, first compound 0.0316 µM
[14] = second compound 0.316 µM, first compound 0.1 µM
[15] = second compound 0.316 µM, first compound 0.316 µM
[16] = second compound 0.316 µM, first compound 1 µM
[17] = second compound 0.316 µM, first compound 3.16 µM
[18] = second compound 0.316 µM, first compound 10 µM
[19] = second compound 1 µM, first compound 0.0316 µM
[20] = second compound 1 µM, first compound 0.1 µM
[21] = second compound 1 µM, first compound 0.316 µM
[22] = second compound 1 µM, first compound 1 µM
[23] = second compound 1 µM, first compound 3.16 µM
[24] = second compound 1 µM, first compound 10 µM
[25] = second compound 3.16 µM, first compound 0.0316 µM
[26] = second compound 3.16 µM, first compound 0.1 µM
[27] = second compound 3.16 µM, first compound 0.316 µM
[28] = second compound 3.16 µM, first compound 1 µM
[29] = second compound 3.16 µM, first compound 3.16 µM
[30] = second compound 3.16 µM, first compound 10 µM
[31] = second compound 10 µM, first compound 0.0316 µM
[32] = second compound 10 µM, first compound 0.1 µM
[33] = second compound 10 µM, first compound 0.316 µM
[34] = second compound 10 µM, first compound 1 µM
[35] = second compound 10 µM, first compound 3.16 µM
[36] = second compound 10 µM, first compound 10 µM
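Note: spheroids exposed to drugs for 7 days before viability reading.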
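Throughout, for viability, T/C: 100% = DMSO vehicle control viability.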

Cc1cccc(N(C)C(=O)C2C(O)CCN2c2nc(C)cc(C(F)(F)F)c2C#N)c1 (centres undefined) + Cc1[nH]c2ccc(F)cc2c1-c1nc2c3cccnc3c3ncccc3c2[nH]1
IC50 (second compound 0.0316 µM): > 10000 nM | IC50 (second compound 0.1 µM): > 10000 nM | IC50 (second compound 0.316 µM): > 10000 nM | IC50 (second compound 1 µM): > 10000 nM | IC50 (second compound 3.16 µM): > 10000 nM | IC50 (second compound 10 µM): > 10000 nM | viability, T/C [1]: 106% | viability, T/C [2]: 93.3% | viability, T/C [3]: 92.7% | viability, T/C [4]: 101% | viability, T/C [5]: 98.1% | viability, T/C [6]: 91.6% | viability, T/C [7]: 98.7% | viability, T/C [8]: 99.1% | viability, T/C [9]: 112% | viability, T/C [10]: 85.9% | viability, T/C [11]: 104% | viability, T/C [12]: 95.1% | viability, T/C [13]: 102% | viability, T/C [14]: 100% | viability, T/C [15]: 91.4% | viability, T/C [16]: 88.4% | viability, T/C [17]: 110% | viability, T/C [18]: 93.7% | viability, T/C [19]: 91.4% | viability, T/C [20]: 89.4% | viability, T/C [21]: 93.9% | viability, T/C [22]: 99.4% | viability, T/C [23]: 109% | viability, T/C [24]: 91.1% | viability, T/C [25]: 85.8% | viability, T/C [26]: 92.5% | viability, T/C [27]: 83.1% | viability, T/C [28]: 88% | viability, T/C [29]: 93.4% | viability, T/C [30]: 83.1% | viability, T/C [31]: 70.4% | viability, T/C [32]: 73.5% | viability, T/C [33]: 83.8% | viability, T/C [34]: 75% | viability, T/C [35]: 83.7% | viability, T/C [36]: 91.4%

CC(C)(O)C1CCC(Nc2ccc3ncc(-c4cccc(C(F)(F)F)c4)n3n2)CC1 (centres undefined) + CN(C)c1ccc(Nc2c3ccc(NC(=O)CCN4CCCC4)cc3nc3cc(NC(=O)CCN4CCCC4)ccc23)cc1
IC50 (second compound 0.0316 µM): 1420 nM | IC50 (second compound 0.1 µM): 1370 nM | IC50 (second compound 0.316 µM): 1560 nM | IC50 (second compound 1 µM): 1720 nM | IC50 (second compound 3.16 µM): 1520 nM | IC50 (second compound 10 µM): 915 nM | viability, T/C [1]: 96.8% | viability, T/C [2]: 97.3% | viability, T/C [3]: 81.7% | viability, T/C [4]: 65% | viability, T/C [5]: 16.9% | viability, T/C [6]: 19.1% | viability, T/C [7]: 94.2% | viability, T/C [8]: 84.5% | viability, T/C [9]: 87% | viability, T/C [10]: 61% | viability, T/C [11]: 20.4% | viability, T/C [12]: 21.6% | viability, T/C [13]: 97% | viability, T/C [14]: 113% | viability, T/C [15]: 83.4% | viability, T/C [16]: 70.5% | viability, T/C [17]: 19.9% | viability, T/C [18]: 20.2% | viability, T/C [19]: 92.9% | viability, T/C [20]: 95.9% | viability, T/C [21]: 78.6% | viability, T/C [22]: 75.5% | viability, T/C [23]: 19.1% | viability, T/C [24]: 24% | viability, T/C [25]: 87.1% | viability, T/C [26]: 97.3% | viability, T/C [27]: 83.8% | viability, T/C [28]: 66.4% | viability, T/C [29]: 18.1% | viability, T/C [30]: 24.2% | viability, T/C [31]: 65.3% | viability, T/C [32]: 61.7% | viability, T/C [33]: 61.1% | viability, T/C [34]: 49% | viability, T/C [35]: 13.8% | viability, T/C [36]: 13.1%
